Test results published in PMC12281424, “A Rac-specific competitive inhibitor of guanine nucleotide binding reduces metastasis in triple-negative breast cancer” (Cell Reports Medicine, 2025).

What was measured:
[1] = White blood cell formula; type: in vivo, mouse
Source text: Data S6. Formule white blood cell (% of leukocytes) in control and A41-treated mice (25
Control (n=5) A41 (n=5) p value

[2] = system: membrane receptors, ion channel, and kinases; test: In vitro binding assays on a panel of potential targets
Description: (§1) Blood cell counts, kinase profiler, safety screen, bacterial cytotoxicity, Ames, micronucleus assays were performed by the company Eurofins (France). The kinase profiler was performed by the company Eurofins (Discovery, Panlab and Cerep).

[3] = molecular target: Muscarinic M1 (Homo sapiens, UniProt P11229); test: Safety screen; type: binding
Description: (§2) Blood cell counts, kinase profiler, safety screen, bacterial cytotoxicity, Ames, micronucleus assays were performed by the company Eurofins (France).

[4] = molecular target: Muscarinic M4 (Homo sapiens, UniProt P08173); test: Safety screen; type: binding
Description: as §2

[5] = molecular target: ALK(h) (Homo sapiens, UniProt Q9UM73); test: Kinase Profiler; type: biochemical
Description: (§3) The kinase profiler was performed by the company Eurofins (Discovery, Panlab and Cerep).

[6] = molecular target: B-Raf(V599E)(h) (Homo sapiens, UniProt P15056, V600E); test: Kinase Profiler; type: biochemical
Description: as §1

[7] = molecular target: CaMKIIβ(h) (Homo sapiens, UniProt Q13554); test: Kinase Profiler; type: biochemical
Description: as §3

[8] = molecular target: CDKL2(h) (Homo sapiens, UniProt Q92772); test: Kinase Profiler; type: biochemical
Description: as §3

[9] = molecular target: DYRK1B(h) (Homo sapiens, UniProt Q9Y463); test: Kinase Profiler; type: biochemical
Description: as §3

[10] = molecular target: EGFR(T790M,L858R)(h) (Homo sapiens, UniProt P00533, L858R/T790M); test: Kinase Profiler; type: biochemical
Description: as §3

[11] = molecular target: EphB3(h) (Homo sapiens, UniProt P54753); test: Kinase Profiler; type: biochemical
Description: as §1

[12] = molecular target: FAK(h) (Homo sapiens, UniProt Q05397); test: Kinase Profiler; type: biochemical
Description: as §3

[13] = molecular target: GRK5(h) (Homo sapiens, UniProt P34947); test: Kinase Profiler; type: biochemical
Description: as §1

[14] = molecular target: HIPK2(h) (Homo sapiens, UniProt Q9H2X6); test: Kinase Profiler; type: biochemical
Description: as §3

[15] = molecular target: IR(h), activated (Homo sapiens, UniProt P06213); test: Kinase Profiler; type: biochemical
Description: as §1

[16] = molecular target: LKB1(h) (Homo sapiens, UniProt Q15831); test: Kinase Profiler; type: biochemical
Description: as §3

[17] = molecular target: MLK2(h) (Homo sapiens, UniProt Q02779); test: Kinase Profiler; type: biochemical
Description: as §1

[18] = molecular target: MRCKγ(h) (Homo sapiens, UniProt Q6DT37); test: Kinase Profiler; type: biochemical
Description: as §3

[19] = molecular target: MSK1(h) (Homo sapiens, UniProt O75582); test: Kinase Profiler; type: biochemical
Description: as §1

[20] = molecular target: MSK2(h) (Homo sapiens, UniProt O75676); test: Kinase Profiler; type: biochemical
Description: as §1

[21] = molecular target: MSSK1(h) (Homo sapiens, UniProt Q9UPE1); test: Kinase Profiler; type: biochemical
Description: as §1

[22] = molecular target: OSR1(h) (Homo sapiens, UniProt O95747); test: Kinase Profiler; type: biochemical
Description: as §1

[23] = molecular target: PDGFRα(h) (Homo sapiens, UniProt P16234); test: Kinase Profiler; type: biochemical
Description: as §3

[24] = molecular target: PKCε(h) (Homo sapiens, UniProt Q02156); test: Kinase Profiler; type: biochemical
Description: as §3

[25] = molecular target: PKD3(h) (Homo sapiens, UniProt O94806); test: Kinase Profiler; type: biochemical
Description: as §3

[26] = molecular target: Ron(h) (Homo sapiens, UniProt Q04912); test: Kinase Profiler; type: biochemical
Description: as §1

[27] = molecular target: Ros(h) (Homo sapiens, UniProt P08922); test: Kinase Profiler; type: biochemical
Description: as §1

[28] = molecular target: STK16(h) (Homo sapiens, UniProt O75716); test: Kinase Profiler; type: biochemical
Description: as §3

[29] = molecular target: STK39(h) (Homo sapiens, UniProt Q9UEW8); test: Kinase Profiler; type: biochemical
Description: as §3

[30] = molecular target: TrkC(h) (Homo sapiens, UniProt Q16288); test: Kinase Profiler; type: biochemical
Description: as §3

[31] = molecular target: TTBK1(h) (Homo sapiens, UniProt Q5TCY1); test: Kinase Profiler; type: biochemical
Description: as §3

[32] = molecular target: ULK1(h) (Homo sapiens, UniProt O75385); test: Kinase Profiler; type: biochemical
Description: as §1

[33] = molecular target: VRK2(h) (Homo sapiens, UniProt Q86Y07); test: Kinase Profiler; type: biochemical
Description: as §3

[34] = molecular target: PI3KC2a(h) (Homo sapiens, UniProt O00443); test: Kinase Profiler; type: biochemical
Description: as §3

[35] = molecular target: PIP4K2a(h) (Homo sapiens, UniProt P48426); test: Kinase Profiler; type: biochemical
Chain of PIP4K2a(h) (P48426 whole entry): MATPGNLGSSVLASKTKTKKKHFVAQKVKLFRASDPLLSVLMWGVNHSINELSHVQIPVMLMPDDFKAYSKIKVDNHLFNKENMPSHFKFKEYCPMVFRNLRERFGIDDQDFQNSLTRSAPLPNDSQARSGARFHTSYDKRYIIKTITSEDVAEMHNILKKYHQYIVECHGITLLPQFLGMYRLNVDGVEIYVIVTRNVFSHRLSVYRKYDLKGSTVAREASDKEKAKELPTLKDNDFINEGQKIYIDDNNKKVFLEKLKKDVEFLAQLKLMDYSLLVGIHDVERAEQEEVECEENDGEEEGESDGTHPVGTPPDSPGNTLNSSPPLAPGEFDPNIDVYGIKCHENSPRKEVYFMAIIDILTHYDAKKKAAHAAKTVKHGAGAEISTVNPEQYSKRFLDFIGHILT
Description: as §3

Chain of MLK2(h) (Q02779 whole entry): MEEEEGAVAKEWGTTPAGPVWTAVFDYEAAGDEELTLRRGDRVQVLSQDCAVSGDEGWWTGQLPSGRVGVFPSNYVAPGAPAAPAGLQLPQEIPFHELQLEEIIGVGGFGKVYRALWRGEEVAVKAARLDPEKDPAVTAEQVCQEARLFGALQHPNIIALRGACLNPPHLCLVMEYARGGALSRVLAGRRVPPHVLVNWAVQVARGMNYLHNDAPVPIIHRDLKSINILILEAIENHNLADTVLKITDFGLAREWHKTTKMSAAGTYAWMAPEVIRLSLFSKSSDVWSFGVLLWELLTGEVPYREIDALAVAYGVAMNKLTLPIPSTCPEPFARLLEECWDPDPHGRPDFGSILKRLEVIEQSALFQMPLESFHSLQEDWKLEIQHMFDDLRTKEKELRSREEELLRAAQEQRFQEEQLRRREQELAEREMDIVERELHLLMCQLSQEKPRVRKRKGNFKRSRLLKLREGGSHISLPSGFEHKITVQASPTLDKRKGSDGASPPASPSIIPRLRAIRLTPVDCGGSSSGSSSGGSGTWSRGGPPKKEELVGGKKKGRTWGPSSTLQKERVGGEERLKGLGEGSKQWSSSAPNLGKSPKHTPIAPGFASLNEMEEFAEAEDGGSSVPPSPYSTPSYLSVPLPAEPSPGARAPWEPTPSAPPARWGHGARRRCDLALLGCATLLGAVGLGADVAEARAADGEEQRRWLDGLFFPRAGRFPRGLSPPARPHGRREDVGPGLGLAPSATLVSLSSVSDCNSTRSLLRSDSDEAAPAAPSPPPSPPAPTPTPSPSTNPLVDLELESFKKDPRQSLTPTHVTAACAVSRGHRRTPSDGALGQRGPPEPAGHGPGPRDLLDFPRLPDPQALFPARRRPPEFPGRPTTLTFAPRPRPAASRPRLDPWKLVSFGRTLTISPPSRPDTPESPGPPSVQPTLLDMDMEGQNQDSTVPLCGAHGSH
Chain of FAK(h) (Q05397 whole entry): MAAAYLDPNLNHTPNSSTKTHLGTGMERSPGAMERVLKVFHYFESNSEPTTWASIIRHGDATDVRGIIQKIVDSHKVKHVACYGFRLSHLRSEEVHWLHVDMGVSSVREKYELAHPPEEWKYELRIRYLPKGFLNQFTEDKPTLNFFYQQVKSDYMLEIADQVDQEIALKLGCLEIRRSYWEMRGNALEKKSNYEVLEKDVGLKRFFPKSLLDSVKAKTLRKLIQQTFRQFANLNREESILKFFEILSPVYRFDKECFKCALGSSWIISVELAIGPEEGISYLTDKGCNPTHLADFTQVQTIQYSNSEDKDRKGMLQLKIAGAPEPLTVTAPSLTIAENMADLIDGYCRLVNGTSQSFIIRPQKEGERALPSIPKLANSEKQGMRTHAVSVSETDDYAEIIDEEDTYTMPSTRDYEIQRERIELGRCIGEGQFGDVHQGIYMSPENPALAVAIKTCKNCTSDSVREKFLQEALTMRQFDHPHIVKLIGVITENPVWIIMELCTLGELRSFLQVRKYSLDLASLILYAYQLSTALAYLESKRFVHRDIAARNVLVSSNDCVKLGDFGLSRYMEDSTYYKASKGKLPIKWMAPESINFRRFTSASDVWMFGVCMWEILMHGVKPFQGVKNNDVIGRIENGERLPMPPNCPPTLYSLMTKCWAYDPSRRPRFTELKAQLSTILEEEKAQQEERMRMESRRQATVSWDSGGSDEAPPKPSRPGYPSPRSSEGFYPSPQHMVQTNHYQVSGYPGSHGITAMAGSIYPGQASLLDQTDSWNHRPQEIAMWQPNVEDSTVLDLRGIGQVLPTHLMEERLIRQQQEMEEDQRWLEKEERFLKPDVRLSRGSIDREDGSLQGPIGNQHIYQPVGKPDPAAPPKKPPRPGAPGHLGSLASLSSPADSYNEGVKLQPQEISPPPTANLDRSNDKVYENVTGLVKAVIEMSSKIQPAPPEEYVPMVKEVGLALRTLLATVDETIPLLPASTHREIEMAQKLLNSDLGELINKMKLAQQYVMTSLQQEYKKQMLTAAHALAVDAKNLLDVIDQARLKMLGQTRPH
Chain of STK16(h) (O75716 whole entry): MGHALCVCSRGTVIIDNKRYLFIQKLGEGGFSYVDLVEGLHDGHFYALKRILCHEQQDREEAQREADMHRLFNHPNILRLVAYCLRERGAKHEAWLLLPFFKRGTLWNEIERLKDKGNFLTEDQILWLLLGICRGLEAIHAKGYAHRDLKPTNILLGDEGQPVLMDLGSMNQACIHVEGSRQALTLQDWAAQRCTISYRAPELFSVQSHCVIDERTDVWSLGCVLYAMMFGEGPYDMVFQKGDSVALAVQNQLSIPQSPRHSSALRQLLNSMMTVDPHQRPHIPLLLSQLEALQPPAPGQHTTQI
Chain of TTBK1(h) (Q5TCY1 whole entry): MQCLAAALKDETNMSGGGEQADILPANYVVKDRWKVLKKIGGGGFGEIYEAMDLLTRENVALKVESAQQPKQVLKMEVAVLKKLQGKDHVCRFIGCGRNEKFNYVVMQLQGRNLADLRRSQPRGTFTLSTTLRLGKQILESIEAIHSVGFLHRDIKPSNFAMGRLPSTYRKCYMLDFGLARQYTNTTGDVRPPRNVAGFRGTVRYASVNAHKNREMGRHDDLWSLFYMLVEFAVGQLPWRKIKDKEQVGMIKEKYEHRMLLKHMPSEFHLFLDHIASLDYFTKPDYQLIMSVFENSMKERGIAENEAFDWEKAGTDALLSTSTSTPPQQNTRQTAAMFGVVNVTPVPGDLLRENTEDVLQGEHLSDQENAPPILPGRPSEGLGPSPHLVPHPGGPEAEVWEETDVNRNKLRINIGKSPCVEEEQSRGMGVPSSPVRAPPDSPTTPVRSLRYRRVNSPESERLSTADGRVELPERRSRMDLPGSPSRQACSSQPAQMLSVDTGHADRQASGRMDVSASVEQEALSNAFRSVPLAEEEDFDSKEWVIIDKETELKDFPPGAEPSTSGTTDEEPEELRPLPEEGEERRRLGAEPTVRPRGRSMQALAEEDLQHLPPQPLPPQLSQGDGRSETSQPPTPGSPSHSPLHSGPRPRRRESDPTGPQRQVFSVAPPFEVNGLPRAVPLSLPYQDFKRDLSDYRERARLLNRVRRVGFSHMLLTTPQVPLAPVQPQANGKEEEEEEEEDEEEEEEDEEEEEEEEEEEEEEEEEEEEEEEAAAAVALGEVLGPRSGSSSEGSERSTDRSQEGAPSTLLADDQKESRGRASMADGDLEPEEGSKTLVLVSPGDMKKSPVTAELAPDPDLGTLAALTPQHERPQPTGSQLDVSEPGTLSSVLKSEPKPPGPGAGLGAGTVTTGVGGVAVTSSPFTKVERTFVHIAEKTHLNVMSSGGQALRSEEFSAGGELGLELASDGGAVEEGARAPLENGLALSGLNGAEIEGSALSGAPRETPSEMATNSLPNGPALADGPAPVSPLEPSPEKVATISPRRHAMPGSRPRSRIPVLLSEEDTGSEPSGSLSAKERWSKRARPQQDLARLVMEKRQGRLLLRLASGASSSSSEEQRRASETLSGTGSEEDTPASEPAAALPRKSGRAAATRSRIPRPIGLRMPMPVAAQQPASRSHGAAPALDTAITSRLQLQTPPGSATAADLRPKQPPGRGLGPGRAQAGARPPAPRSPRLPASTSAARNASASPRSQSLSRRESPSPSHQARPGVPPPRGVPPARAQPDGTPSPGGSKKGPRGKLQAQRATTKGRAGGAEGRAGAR
Chain of B-Raf(V599E)(h) (P15056 417-766 V600E limits assumed): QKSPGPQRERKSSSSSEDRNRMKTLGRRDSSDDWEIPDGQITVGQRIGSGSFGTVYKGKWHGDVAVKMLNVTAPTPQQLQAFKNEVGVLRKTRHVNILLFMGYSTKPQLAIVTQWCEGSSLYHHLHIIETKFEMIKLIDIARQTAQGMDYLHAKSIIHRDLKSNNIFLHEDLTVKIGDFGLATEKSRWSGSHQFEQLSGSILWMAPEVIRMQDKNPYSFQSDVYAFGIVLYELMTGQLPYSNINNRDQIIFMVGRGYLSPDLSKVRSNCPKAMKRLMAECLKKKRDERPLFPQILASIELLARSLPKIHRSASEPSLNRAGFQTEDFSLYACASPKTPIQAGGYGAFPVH
Chain of Muscarinic M4 (P08173 whole entry): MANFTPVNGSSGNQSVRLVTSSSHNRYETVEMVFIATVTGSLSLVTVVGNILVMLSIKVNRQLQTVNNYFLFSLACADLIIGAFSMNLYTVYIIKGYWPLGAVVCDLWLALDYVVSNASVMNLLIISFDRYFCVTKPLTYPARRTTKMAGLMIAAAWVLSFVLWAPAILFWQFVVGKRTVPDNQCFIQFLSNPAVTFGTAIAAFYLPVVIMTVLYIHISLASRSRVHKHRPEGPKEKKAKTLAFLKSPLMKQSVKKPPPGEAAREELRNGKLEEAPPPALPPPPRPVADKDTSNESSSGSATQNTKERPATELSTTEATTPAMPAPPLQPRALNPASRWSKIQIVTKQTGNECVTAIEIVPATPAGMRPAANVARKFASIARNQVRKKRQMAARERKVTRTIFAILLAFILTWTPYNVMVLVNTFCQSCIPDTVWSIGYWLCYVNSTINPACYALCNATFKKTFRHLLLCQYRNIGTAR

SMILES: COc1ccc(OC)c(NS(=O)(=O)c2ccc(NC(=O)CCSc3ccc(C)cc3)cc2)c1 [Compound A41]
- B cells, Mean (SD) ([1]; 25 mg/kg/d, n=5): 11.62 (1.58) % of leukocytes
- Macrophages, Mean (SD) ([1]; 25 mg/kg/d, n=5): 2.46 (2.34) % of leukocytes
- Monocytes, Mean (SD) ([1]; 25 mg/kg/d, n=5): 0.86 (0.57) % of leukocytes
- NK cells, Mean (SD) ([1]; 25 mg/kg/d, n=5): 0.40 (0.22) % of leukocytes
- Neutrophiles, Mean (SD) ([1]; 25 mg/kg/d, n=5): 4.19 (6.24) % of leukocytes
- T cells, Mean (SD) ([1]; 25 mg/kg/d, n=5): 52.20 (2.11) % of leukocytes
- white cell blood counts ([1]; chronic A41 treatment, immunocompetent mice): not accompanied by changes in white cell blood counts
- off-target binding [2]: only very limited off-target binding
- % inh. [3]: 11%
- % inh. [4]: -1%
- Activity(%) [5]: 82%
- Activity(%) [6]: 87%
- Activity(%) [7]: 112%
- Activity(%) [8]: 103%
- Activity(%) [9]: 96%
- Activity(%) [10]: 104%
- Activity(%) [11]: 113%
- Activity(%) [12]: 111%
- Activity(%) [13]: 101%
- Activity(%) [14]: 81%
- Activity(%) [15]: 104%
- Activity(%) [16]: 107%
- Activity(%) [17]: 109%
- Activity(%) [18]: 97%
- Activity(%) [19]: 117%
- Activity(%) [20]: 105%
- Activity(%) [21]: 125%
- Activity(%) [22]: 103%
- Activity(%) [23]: 92%
- Activity(%) [24]: 102%
- Activity(%) [25]: 104%
- Activity(%) [26]: 110%
- Activity(%) [27]: 139%
- Activity(%) [28]: 115%
- Activity(%) [29]: 91%
- Activity(%) [30]: 104%
- Activity(%) [31]: 103%
- Activity(%) [32]: 106%
- Activity(%) [33]: 110%
- Activity(%) [34]: 95%
- Activity(%) [35]: 95%
